One assay deals with TMD-8 xenograft tumor. Put plainly: TMD-8 xenograft tumor model. The assay is classed as in vivo. The note with it: intragastric 25 mg/kg once/day. The method, then:
(§1) CB17/SCID female mice with serious immune deficiency were purchased from Beijing Vital River Laboratory Animal Technology Co., Ltd. and bred in SPF animal houses. Human TMD-8 cells (Shanghai Junrui-UFBN1682) were cultured in an RPMI 1640 culture medium containing 10% fetal bovine serum, 100 U/mL penicillin and 100 μg/mL streptomycin through monolayer culture in vitro in an incubator (37° C., 5% C02). Routine treatment was performed twice a week for passaging. At a cell saturation of 80%-90% and a required number, the cells were harvested and counted. 0.2 mL (1×10^7) of TMD-8 cells (together with matrigel at a volume ratio of 1:1) were subcutaneously inoculated into the right back of each mouse, and the tumor size could be measured about one week after inoculation. Tumor size was measured using a vernier caliper and tumor volume was calculated using the following formula: tumor volume=(length×width^2)/2.

The subject of the next assay is OCI-LY10. Briefly: In vitro tumor cell proliferation inhibition, OCI-LY10 (CellTiter-Glo). The note with it: Homo sapiens; OCI-LY10 cells, 72 h. In kind it is cell-based. The method, then:
(§2) (1) Method • The tumor cell line (TMD-8/OCY-LY10) was suspended in RPMI1640+FBS10% and cultured in an incubator (37° C., 5% CO2). Cells were passaged periodically, and cells at logarithmic growth phase were collected for plating. • Cell staining was performed with trypan blue and viable cells were counted. • Cell concentration was adjusted to 7000 cells/well with medium. • 90 μL of cell suspension was added to a 96-well plate and cell-free culture medium was added to the blank control wells. • Cells in the 96-well plate were incubated overnight in an incubator (37° C., 5% CO2, 100% relative humidity). • Preparation of 400× compound storage plates: test compounds and reference drug were each dissolved in DMSO and 3× diluted from the highest concentration (400 μM) to the lowest concentration (0.61 μM). • Preparation of 10× compound working solutions: 78 μL of cell culture medium was added to a V-bottom 96-well plate, and 2 μL of the compound was pipetted from the 400× compound storage plate into the 96-well plate. Vehicle control wells and blank control wells were added with 2 μL of DMSO. […] Inhibition rates of compounds at different concentrations were calculated in Excel, followed by plotting the inhibition curves and calculating IC50 values with GraphPad Prism.

A further assay concerns TMD-8. Put plainly: In vitro tumor cell proliferation inhibition, TMD-8 (CellTiter-Glo). In kind it is cell-based. The note with it: Homo sapiens, TMD8; TMD-8 cells, 72 h. As to the method:
as §2

In the next assay the test system is OCI-LY10 xenograft tumor. Briefly: OCI-LY10 xenograft tumor model. In kind it is in vivo. The note with it: intragastric 25 mg/kg once/day, day 28. As to the method:
as §1, with “OCI-LY10” for “TMD-8”, “Junrui-UFBN0102)” for “Junrui-UFBN1682)”

`C=CC(=O)N1CCC[C@@H](n2nc(-c3ccc(Oc4ccccc4)cc3)c3c(N)ncnc32)C1` [Ibrutinib, ibrutinib, reference compound]: the TGI is given as 90% in the assay on TMD-8 xenograft tumor and 94% with OCI-LY10 xenograft tumor. Also, the IC50 with OCI-LY10 turned out to be 1.7 nM; with TMD-8 it was 0.4 nM.

The values above are taken from patent US11420975B2, “Substituted imidazo[1,5-a]pyrazines as Bruton's tyrosine kinase inhibitors” (TRANSTHERA SCIENCES (NANJING), INC., priority 2018, dated 2022).
